According to paper PMC7743076 (bioRxiv, 2021):
Several values for one entry are separate records, joined by “and”; a condition that tells them apart may be missing. Equal values may be shown once. Where a name gives a salt, the structure may show the parent alone.

Key:
[1] = molecular target: SARS-CoV-2 RBD (RBD Wuhan-1) binding to ACE2 (Severe acute respiratory syndrome coronavirus 2, UniProt P0DTC2)
[2] = test system: B.1.617.2 pseudovirus, entry into 293T-ACE2-TMPRSS2 cells; type: cell-based, SARS-CoV-2
[3] = test system: B.1.617.1 pseudovirus, entry into 293T-ACE2-TMPRSS2 cells; type: cell-based, SARS-CoV-2; settings: for IC50: read-out: IC50, B.1.617.1 PV transduction assay
[4] = test system: SARS-CoV-2 variant pseudoviruses (D614G, P.1., B 1.1.7, B.1.429 and B1.351), entry into 293T-ACE2-TMPRSS2 cells; type: cell-based

| SMILES | Inhibition of binding of RBD Wuhan-1 to ACE2 (in words) [1] | Increase of IC50 for B.1.617.2 versus B.1.617.1 [2] | other results |
| --- | --- | --- | --- |
| CC(C)(S)C(=O)N[C@@H](CS)C(=O)O [Bucillamine] | much stronger effects | approximately two-fold | – |
| O=C(O)[C@@H](S)[C@@H](S)C(=O)O [Succimer, Dimercaptosuccinic acid] | relatively weak inhibitory effects | – | – |
| CO[C@H]1O[C@H](CS)[C@H](O)[C@H](O)[C@H]1O [TDG, methyl 6-thio-6-deoxy-α-D-galactopyranoside] | – | 3–15 fold | Potency higher than compounds with similarly high pKa values (NAC, Mesna) [3]: 5 fold |
| NCCCNCCS [WR-1065] | much stronger effects | 3–15 fold | IC50 [3]: ~1000 µM; IC50 ([2]; read-out: IC50, B.1.617.2 PV transduction assay): 6000 µM and 5000 to 15000 µM |
| NCCS [Cysteamine] | much stronger effects | 3–15 fold | IC50 [3]: ~1000 µM; Entry of SARS-CoV-2 PV variants, cells pretreated [4]: not affected; Potency against variant PV entry (in words) [4]: less potent against the other variants tested |
| N[C@@H](CS)C(=O)O [L-cysteine] | – | – | Inhibition of B.1.617.1 PV entry (in words) [3]: intermediate potency |
| CC(C)(S)[C@@H](N)C(=O)O [Penicillamine] | relatively weak inhibitory effects | – | – |
| O=S(=O)(O)CCS [Mesna, 2-mercaptoethane sulfonate, sodium salt] | much stronger effects | – | IC50, B.1.617.2 PV transduction assay [2]: did not achieve an IC50 value at the doses tested |
